The values below come from US4396543A.

The nature of data set [1]: toxicity test, LD50. Conditions: mouse, in vivo, iv; administered intravenously; read-out: LD50 (mg/kg) in Mice.
For data set [2], the system named is Streptococcus pyogenes C203. Put plainly: agar-dilution MIC. Format: cell-based. As to conditions: two values = two experiments, 2 median of five, 19 median of three.
Data set [3] relates to Staphylococcus aureus X1.1. In words: agar-dilution MIC. Type of data set: cell-based. Conditions: two values = two experiments, 2 median of five, 19 median of three experiments.
Experimental: (§1) In Table VII activity is measured by the minimal inhibitory concentration (MIC), i.e. the lowest concentration of compound at which growth of the microorganism is inhibited by the test compound.
Data set [4] deals with Streptococcus Group D 9960. Put plainly: agar-dilution MIC. Type of data set: cell-based. As to conditions: two values = two experiments, 2 median of five, 19 median of three.
Experimental: as §1
The test system of data set [5] is Staphylococcus epidermidis EPI1. Type of data set: cell-based. Conditions: two values = two experiments, 2 median of five, 19 median of three.
In data set [6] the test system is Streptococcus Group D X66. Put plainly: agar-dilution MIC. Conditions: two values = two experiments, 2 median of five, 19 median of three. Type of data set: cell-based.
Experimental: as §1
Data set [7] has as its system Streptococcus pyogenes. In words: in vivo experimental bacterial infection, ED50. Conditions: mice; for ED50 Values Streptococcus pyogenes Oral: two doses orally; for ED50 Values Streptococcus pyogenes Subcutaneous: two doses subcutaneously, two values = two experiments.
The test system of data set [8] is Streptococcus pneumoniae Park I. Format: cell-based. Conditions: two values = two experiments, 2 median of five, 19 median of three.
Experimental: as §1
Data set [9] concerns Staphylococcus aureus X400. Put plainly: agar-dilution MIC. Type of data set: cell-based. As to conditions: Staphylococcus aureus X400, methicillin-resistant strain; two values = two experiments; 2 median of five, 19 median of three.
Experimental: as §1
The test system of data set [10] is Staphylococcus aureus V41. In words: agar-dilution MIC. Conditions: Staphylococcus aureus V41, penicillin-resistant strain; two values = two experiments; 2 median of five, 19 median of three. Type of data set: cell-based.
Experimental: as §1
For data set [11], the system named is Staphylococcus epidermidis EPI2. In words: agar-dilution MIC. Conditions: two values = two experiments, 2 median of five, 19 median of three. Type of data set: cell-based.
Data set [12] has as its system Staphylococcus aureus. Put plainly: in vivo experimental bacterial infection, ED50. As to conditions: mice, two doses subcutaneously; two values = two experiments.

Molecules are shown by their SMILES. Converted amounts (≈) assume the structure as drawn. “And” between values parts separate entries of the source, which are not always exact repeats. Equal values may be shown once.

For `CCCCCCCCCCCC(=O)Nc1cccc(C(=O)N[C@@H](Cc2c[nH]c3ccccc23)C(=O)N[C@H](CC(N)=O)C(=O)N[C@@H](CC(=O)O)C(=O)N[C@@H]2C(=O)NCC(=O)N[C@@H](CCCN)C(=O)N[C@@H](CC(=O)O)C(=O)N[C@H](C)C(=O)N[C@@H](CC(=O)O)C(=O)NCC(=O)N[C@H](CO)C(=O)N[C@@H]([C@H](C)CC(=O)O)C(=O)N[C@@H](CC(=O)c3ccccc3N)C(=O)O[C@@H]2C)c1` [Compound 5], the LD50 in [1] turned out to be 277 mg/kg. The MIC in [2] came out at 0.25 µg/mL (≈ 0.141 µM); in data set [3], 0.5 µg/mL (≈ 0.283 µM); in [4] it was 1 µg/mL (≈ 0.566 µM); in data set [5], 2 µg/mL (≈ 1.13 µM); in [6], 4 µg/mL (≈ 2.26 µM); in data set [8], 0.25 µg/mL (≈ 0.141 µM). Besides, the MIC in data set [9] stood at 1 µg/mL (≈ 0.566 µM); in data set [10], 0.5 µg/mL (≈ 0.283 µM); in [11], 1 µg/mL (≈ 0.566 µM). Also, the “ED50 Values Streptococcus pyogenes Oral” value in [7] was > 200 mg/kg × 2. For the same compound, the “ED50 Values Streptococcus pyogenes Subcutaneous” value in data set [7] is > 0.25 mg/kg × 2 and 0.46 mg/kg × 2. Moreover, in [12], the “ED50 Values Staphylococcus aureus Subcutaneous” value is given as 1.67 mg/kg × 2.

`CCCCCCC(=O)NCCCCCCCCCCC(=O)N[C@@H](Cc1c[nH]c2ccccc12)C(=O)N[C@H](CC(N)=O)C(=O)N[C@@H](CC(=O)O)C(=O)N[C@@H]1C(=O)NCC(=O)N[C@@H](CCCN)C(=O)N[C@@H](CC(=O)O)C(=O)N[C@H](C)C(=O)N[C@@H](CC(=O)O)C(=O)NCC(=O)N[C@H](CO)C(=O)N[C@@H]([C@H](C)CC(=O)O)C(=O)N[C@@H](CC(=O)c2ccccc2N)C(=O)O[C@@H]1C` [Compound 14]: the LD50 in data set [1] is > 600 mg/kg. For the same compound, the MIC is 2 µg/mL (≈ 1.14 µM) in data set [2]; 4 µg/mL (≈ 2.27 µM) in data set [3]; 64 µg/mL (≈ 36.3 µM) in data set [4]; 8 µg/mL (≈ 4.54 µM) in [5]; > 128 µg/mL in data set [6]; 8 µg/mL (≈ 4.54 µM) in data set [8]. For the same compound, the results for the MIC in [9], in [10] and in [11] were 8 µg/mL (≈ 4.54 µM), 4 µg/mL (≈ 2.27 µM) and 8 µg/mL (≈ 4.54 µM), respectively. Further, the “ED50 Values Streptococcus pyogenes Oral” value in data set [7] was > 200 mg/kg × 2. In [7], the “ED50 Values Streptococcus pyogenes Subcutaneous” value is listed as > 9 mg/kg × 2. Besides, in data set [12], the “ED50 Values Staphylococcus aureus Subcutaneous” value is recorded as > 18 mg/kg × 2.

On to `CCCCCCCCCCCC(=O)NCCCCC(=O)N[C@@H](Cc1c[nH]c2ccccc12)C(=O)N[C@H](CC(N)=O)C(=O)N[C@@H](CC(=O)O)C(=O)N[C@@H]1C(=O)NCC(=O)N[C@@H](CCCN)C(=O)N[C@@H](CC(=O)O)C(=O)N[C@H](C)C(=O)N[C@@H](CC(=O)O)C(=O)NCC(=O)N[C@H](CO)C(=O)N[C@@H]([C@H](C)CC(=O)O)C(=O)N[C@@H](CC(=O)c2ccccc2N)C(=O)O[C@@H]1C` [Compound 2], for which the LD50 in [1] was > 600 mg/kg. Further, the MIC in data set [2] turned out to be 1 µg/mL (≈ 0.572 µM); in [3], 4 µg/mL (≈ 2.29 µM); in data set [4], 8 µg/mL (≈ 4.58 µM); in data set [5], 4 µg/mL (≈ 2.29 µM); in data set [6], 32 µg/mL (≈ 18.3 µM); in data set [8] it was 4 µg/mL (≈ 2.29 µM). The results for the minimum inhibitory concentration (MIC) in [9], in [10] and in [11] were 4 µg/mL (≈ 2.29 µM), 4 µg/mL (≈ 2.29 µM) and 2 µg/mL (≈ 1.14 µM), respectively. For the same compound, in data set [7], the “ED50 Values Streptococcus pyogenes Oral” value worked out at 117 mg/kg × 2. In data set [12], the “ED50 Values Staphylococcus aureus Subcutaneous” value is 0.65 mg/kg × 2 and 0.93 mg/kg × 2.

For orientation: MIC means the lowest concentration found to suppress growth.
